The values below come from patent US11813304B2, “Compounds and methods for inhibiting phosphate transport” (Ardelyx, Inc., priority 2013, dated 2023).

Like-named read-outs stand apart in the source and are kept apart here. Where a SMILES comes first, the peptide text is derived from it. Bridges are numbered along the chain shown (N, C = ends).

Experiment [1] concerns intestinal absorption of a phosphate meal from the gastrointestinal tract. Briefly: Acute phosphate tracer uptake to plasma after intragastric co-administration of phosphate test meal and compound (Example 5). It counts as in vivo, rat. The conditions noted are these: rats, 15 min after intragastric co-administration. As for the experimental part:
(§1) Compounds were tested for the ability to reduce the appearance of circulating radiolabeled phosphate subsequent to administration to the alimentary canal in rats. The rate of radiolabeled phosphate tracer accumulation in the blood of rats was taken as a surrogate for the intestinal absorption rate of a phosphate meal from the gastrointestinal tract. To this end, circulating radiolabeled phosphate was monitored after intragastric co-administration to rats of a phosphate tracer meal along with example compounds. However, since some of the compounds tested potentially had properties that may hinder this assay, such as having putative gastrointestinal motility effects (e.g., delaying gastric emptying) or being purposefully chemically unstable in the gastrointestinal tract, direct intraduodenal administrations of the phosphate tracer bolus was also performed at times.
Male Sprague-Dawley rats that were 8-weeks of age were purchased from Charles River Laboratories (Hollister, Calif.). To enable blood sampling, rats were purchased with catheters surgically implanted in the jugular vein by the vendor. For studies requiring intraduodenal administration, an additional catheter was surgically implanted by the vendor to allow for direct infusion to the lumen of the duodenum. Rats were fed a normal, grain-based chow (Harlan Teklad, Madison, Wis.; 2018 Teklad Global 18% Protein Rodent Diet) containing 0.65% P, 1% Ca, and 1.5 iu/g Vitamin D3 and given water ad libitum leading up to the study.
Following an overnight fast, rats were administered a phosphate solution containing [^33P]orthophosphate (PerkinElmer, Waltham, Mass.) as a tracer with or without test articles dispersed in the solution at the indicated dosage. This dosing solution typically contained 8 mM monobasic sodium phosphate (1.25 μCi [^33P]orthophosphate/μmol), 4 mM calcium chloride, 0.4% hydroxypropyl methocellulose (w/v), and 2% dimethylsulfoxide (w/v). The dosing solutions were prepared in water for intragastric gavage at 10 ml/kg and in saline if administered intraduodenally using a previously implanted catheter at 5 ml/kg as a bolus.
(§2) Blood was sampled from the jugular vein via implanted catheters from conscious rats following dosing and the radioisotope associated with the resulting plasma was determined by scintillation counting. The relative amount of phosphate uptake from the administered dose to the plasma was assessed using body weight estimation of total circulating plasma. See Bijsterbosch et al., Experientia. 37: 381-382, 1981 (The plasma volume of the Wistar rat in relation to the body weight). The comparative amount of phosphate uptake at 15 min post-dose for each group (n=6) was expressed as a percentage relative to the study vehicle group (n=6) as mean±SEM. Statistical comparisons of the means of each test group compared to the mean of the vehicle group were determined by one-way analysis of variance followed by the Dunnett's posthoc test and P<0.05 was accepted as statistically significant (ns, not significant; *, P<0.05; **, P<0.01; and ***, P <0.001).

The test system is the same in experiment [2]. Description: Acute phosphate tracer uptake to plasma after intraduodenal co-administration of phosphate test meal and compound (Example 5). It counts as in vivo, rat. As to conditions: rats, 15 min after intraduodenal co-administration. As for the experimental part:
as §1
Male Sprague-Dawley rats that were 8-weeks of age were purchased from Charles River Laboratories (Hollister, Calif.). To enable blood sampling, rats were purchased with catheters surgically implanted in the jugular vein by the vendor. For studies requiring intraduodenal administration, an additional catheter was surgically implanted by the vendor to allow for direct infusion to the lumen of the duodenum. […]
as §2, with “See Bijsterbosch et al., Experientia. 37: 381-382, 1981 (The plasma volume of the Wistar rat in relation to the body weight).” left out

Experiment [3] has as its target P2Y2 receptor (Homo sapiens, UniProt P41231). The conditions noted are these: cited from earlier work; for EC50: agonist potency.
The subject of experiment [4] is phosphate absorption/uptake in the small intestine. Briefly: 33P uptake to plasma in rats simultaneously dosed with 33P and test compound (Examples 2-4). It counts as in vivo, rat. The conditions noted are these: for uptake of phosphate in the gastrointestinal tract of rats: figure legends FIGS. 1-3. As for the experimental part:
Experiments were performed to determine whether guanylate cyclase C (GC-C) receptor agonists can decrease phosphate absorption/uptake in the small intestine as measured by ^33P uptake. Rats were simultaneously dosed with ^33P and linaclotide as shown below:
Blood was collected at 5, 15, 30, 45, and 60 minutes post-^33P administration and plasma scintillation counting was performed.
Experiments were performed to determine whether other classes of drugs can decrease phosphate absorption/uptake in the small intestine as measured by ^33P uptake. Rats were simultaneously dosed with ^33P and either an imidazoline subtype 1 (I1) receptor agonist (moxonidine) or an adenylate cyclase agonist (the water-soluble forskolin analog NKH477) as shown below:
Experiments were performed to determine whether increasing intracellular calcium (Ca^++) by different mechanisms can also decrease phosphate absorption in the small intestine as measured by ^33P uptake. Rats were simultaneously dosed with ^33P and test compounds as shown below: […]

[5] abbreviates: Rattus norvegicus, po, 0.25 h, dose 10 mg/kg, read-out: Uptake of phosphate tracer to plasma, % of study vehicle.

P2Y2 receptor, sequence (P41231 whole entry): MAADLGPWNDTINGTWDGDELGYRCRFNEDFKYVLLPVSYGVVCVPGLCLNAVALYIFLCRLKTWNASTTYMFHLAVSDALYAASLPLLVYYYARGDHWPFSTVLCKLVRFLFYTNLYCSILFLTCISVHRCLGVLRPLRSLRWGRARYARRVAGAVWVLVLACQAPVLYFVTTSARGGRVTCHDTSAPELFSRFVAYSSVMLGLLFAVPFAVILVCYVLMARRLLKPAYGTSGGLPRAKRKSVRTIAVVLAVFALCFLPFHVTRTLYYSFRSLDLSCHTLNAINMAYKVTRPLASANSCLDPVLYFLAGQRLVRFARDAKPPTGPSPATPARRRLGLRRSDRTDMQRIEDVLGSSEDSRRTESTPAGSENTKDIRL

For the compound 6-guanyl NECA, the “Uptake of phosphate tracer to plasma, % of study vehicle” value (“Uptake … % of study vehicle” below) in experiment [1] (dose 10 mg/kg) is above 75%.

On to `CSc1nc(N)c2ncn([C@@H]3O[C@H](COP(=O)(O)OP(=O)(O)O)[C@@H](O)[C@H]3O)c2n1` [2-methylthio-ADP], for which, in experiment [2] (dose 10 mg/kg), the “Uptake … % of study vehicle” value is recorded as above 75%.

Turning to `N[C@@H]1[C@H](O)[C@@H](COP(=O)(O)OP(=O)(O)OP(=O)(O)O)O[C@H]1n1ccc(=O)[nH]c1=S` [2′-amino-2-thio-UTP], the “selectivity, P2Y2-selective versus P2Y4” value in experiment [3] (P2Y2 versus P2Y4) is on record as 300 fold. The concentration giving a half-maximal response (EC50) in experiment [3] is 8 nM.

On to `O=c1[nH]c(=O)n([C@@H]2O[C@H](COP(=O)(O)OP(=O)(O)OP(=O)(O)O)[C@@H](O)[C@H]2O)cc1I` [5-iodo-UTP], for which the EC50 in experiment [3] is 830 nM.

On to `CCCCC(C)(C)[C@H](O)/C=C/[C@H]1[C@H](O)CC(=O)[C@@H]1C/C=C\CCCC(=O)O` [16,16-dimethyl-PGE2, 16,16-dimethyl PGE2], for which the “Uptake … % of study vehicle” value in experiment [1] (dose 3 μg/kg) is on record as above 75%.

`NC[C@@H]1O[C@H](c2ccccc2)Cc2c1ccc(O)c2O` [A68930]: in experiment [1] (dose 10 mg/kg), the “Uptake … % of study vehicle” value is on record as 50-75%.

As to `CC[C@H](C)[C@@H]1NC(=O)[C@H](CCCNC(=N)N)NC(=O)[C@H](CC(=O)O)NC(=O)[C@H](CCSC)NC(=O)[C@H](CCCNC(=N)N)NC(=O)CNC(=O)CNC(=O)[C@H](Cc2ccccc2)NC(=O)[C@@H](NC(=O)[C@H](CO)NC(=O)[C@H](CO)NC(=O)[C@H](CCCNC(=N)N)NC(=O)[C@H](CCCNC(=N)N)NC(=O)[C@H](CC(C)C)NC(=O)[C@@H](N)CO)CSSC[C@@H](C(=O)N[C@@H](CC(N)=O)C(=O)N[C@@H](CO)C(=O)N[C@@H](Cc2ccccc2)C(=O)N[C@@H](CCCNC(=N)N)C(=O)N[C@@H](Cc2ccc(O)cc2)C(=O)O)NC(=O)CNC(=O)[C@H](CC(C)C)NC(=O)CNC(=O)[C@H](CO)NC(=O)[C@H](CCC(N)=O)NC(=O)[C@H](C)NC(=O)CNC1=O` [Atrial natriuretic peptide], the “Uptake … % of study vehicle” value in experiment [2] (dose 0.2 mg/kg) is reported as above 75%.

On to `N#Cc1c(N)nc(SCC(N)=O)c(C#N)c1-c1ccc(OCC2CC2)cc1` [BAY 60-6583], for which, in experiment [1] (dose 10 mg/kg), the “Uptake … % of study vehicle” value is listed as above 75%.

Take `Nc1nc(-c2nn(Cc3ccccc3F)c3ncccc23)ncc1C1CC1` [Bay 41-2271]: the “Uptake … % of study vehicle” value in experiment [1] (dose 10 mg/kg) was above 75%.

As to `O=C(O)CCCCN(CCc1ccccc1OCc1ccc(CCc2ccccc2)cc1)Cc1ccc(C(=O)O)cc1` [Bay 58-2667], the “Uptake … % of study vehicle” value in experiment [1] (dose 10 mg/kg) is 50-75%.

In the case of `CC(C[N+](C)(C)C)OC(N)=O` (stereo not drawn) [Bethanechol, carbamoyl-β-methlycholine], the response vs control in vivo at 10 mg/kg in experiment [1] (setting [5]) is above 75%.

Turning to `CCN[C@H]1C[C@H](C)S(=O)(=O)c2sc(S(N)(=O)=O)cc21` [Dorzolamide, dorzolamide], in experiment [1] (Rattus norvegicus, po, 0.25 h, dose 20 mg/kg, read-out: Uptake of phosphate tracer to plasma, % of study vehicle), the response vs control in vivo at 20 mg/kg is 50 to 75%.

Turning to `C[C@@H]1NC(=O)[C@@H]2CCCN2C(=O)[C@H](CC(N)=O)NC(=O)[C@@H]2CSSC[C@H](N)C(=O)N[C@H]3CSSC[C@H](NC1=O)C(=O)N[C@@H]([C@@H](C)O)C(=O)NCC(=O)N[C@H](C(=O)N[C@@H](Cc1ccc(O)cc1)C(=O)O)CSSC[C@H](NC(=O)[C@H](Cc1ccc(O)cc1)NC(=O)[C@H](CCC(=O)O)NC3=O)C(=O)N2` [Linaclotide] (H-CCEYCCNPACTGCY-OH; disulfide 1-6, 2-10, 5-13), the “Uptake … % of study vehicle” value was 50-75% in experiment [1] (dose 0.03 mg/kg), 50-75% in experiment [1] (dose 0.1 mg/kg) and 25-50% in experiment [1] (dose 0.3 mg/kg). For the same compound, the “uptake of phosphate in the gastrointestinal tract of rats” value (shortened to “uptake of phosphate … of rats”) in experiment [4] is listed as “reduces”. Besides, the “absorption of phosphate in the gastrointestinal tract (plasma 33P)” value in experiment [4] (rats, both doses, 0.1 and 0.3 mg/kg, blood 5-60 min post-33P) was “decreased”.

In the case of `COc1ccc2[nH]cc(CCNC(C)=O)c2c1` [Melatonin, N-acetyl-5-methoxytryptamine], the response vs control in vivo at 10 mg/kg in experiment [1] (setting [5]) was 50 to 75%.

Take `COc1nc(C)nc(Cl)c1N=C1NCCN1` [Moxonidine, moxonidine]: in experiment [1] (Rattus norvegicus, po, 0.25 h, dose 2 mg/kg, read-out: Uptake of phosphate tracer to plasma, % of study vehicle), the response vs control in vivo at 2 mg/kg is 50 to 75%. Also, the response vs control in vivo at 6 mg/kg in experiment [1] (Rattus norvegicus, po, 0.25 h, dose 6 mg/kg, read-out: Uptake of phosphate tracer to plasma, % of study vehicle) was in the range of 25 to 50%. The “uptake of phosphate … of rats” value in experiment [4] is “reduce”.

For the compound `O=c1[nH]c(=S)ccn1[C@@H]1O[C@H](COP(=O)(O)OP(=O)(O)C(F)(F)P(=O)(O)O)[C@@H](O)[C@H]1O` [PSB1114], in experiment [2] (dose 15 mg/kg), the “Uptake … % of study vehicle” value is given as above 75%.

In the case of `COCCCN1CCC(NC(=O)c2cc(Cl)c(N)c3c2OCC3)CC1` [Prucalopride, prucalopride], the response vs control in vivo at 10 mg/kg in experiment [1] (setting [5]) was above 75%.

As for `C1COC(NC(C2CC2)C2CC2)=N1` [Rilmenidine, rilmenidine], in experiment [1] (Rattus norvegicus, po, 0.25 h, dose 3 mg/kg, read-out: Uptake of phosphate tracer to plasma, % of study vehicle), the response vs control in vivo at 3 mg/kg is above 75%.

For the compound `O=c1ccn([C@@H]2O[C@H](COP(=O)(O)OP(=O)(O)OP(=O)(O)OP(=O)(O)OC[C@H]3O[C@@H](n4ccc(=O)[nH]c4=O)[C@H](O)[C@@H]3O)[C@@H](O)[C@H]2O)c(=O)[nH]1` [Up4U], the response vs control in vivo at 5 mg/kg in experiment [1] (Rattus norvegicus, po, 0.25 h, dose 5 mg/kg, read-out: Uptake of phosphate tracer to plasma, % of study vehicle) is above 75%. The response vs control in vivo at 15 mg/kg in experiment [1] (Rattus norvegicus, po, 0.25 h, dose 15 mg/kg, read-out: Uptake of phosphate tracer to plasma, % of study vehicle) is above 75%. Also, the response vs control in vivo at 50 mg/kg in experiment [1] (Rattus norvegicus, po, 0.25 h, dose 50 mg/kg, read-out: Uptake of phosphate tracer to plasma, % of study vehicle) was above 75%. The “uptake of phosphate … of rats” value in experiment [4] is “reduces”. Moreover, the 33P uptake/absorption entry in experiment [4] (rats, 15 mg/kg) is recorded as “significantly decreased”.

On to `CCOC(=O)C1=C[C@]2(CC)CCCN3CCc4c(n1c1ccccc41)[C@@H]32` [Vinpocetine, vinpocetine], for which the response vs control in vivo at 1 mg/kg is 50 to 75% in experiment [1] (Rattus norvegicus, po, 0.25 h, dose 1 mg/kg + 0.03 mg/kg Linacolitde, read-out: Uptake of phosphate tracer to plasma, % of study vehicle) and above 75% in experiment [1] (Rattus norvegicus, po, 0.25 h, dose 1 mg/kg, read-out: Uptake of phosphate tracer to plasma, % of study vehicle). Also, the response vs control in vivo at 10 mg/kg is 25 to 50% in experiment [1] (Rattus norvegicus, po, 0.25 h, dose 10 mg/kg + 0.03 mg/kg Linacolitde, read-out: Uptake of phosphate tracer to plasma, % of study vehicle) and above 75% in experiment [1] (setting [5]).
